For three compounds, Activity results are on record in ChEMBL document CHEMBL2062510, “Acylphloroglucinols from Elaphoglossum crassipes: antidepressant-like activity of crassipin A” (J Nat Prod, 2012).

For data set [1], the system named is Mus musculus. The data set is described as follows: Antidepressant activity in CF1 mouse assessed as reduction in immobility at 20 mg/kg, po measured after 60 mins by forced-swimming test. It counts as functional, organism-based. On the set-up: dose 20 mg/kg.
Data set [2] has as its system Mus musculus. The data set is described as follows: Toxicity in CF1 mouse assessed as change in number of grooming at 15 mg/kg, po measured after 60 mins by open-field test. It counts as organism-based. On the set-up: dose 15 mg/kg, route oral. The settings on record: in vivo, 1 h.
Data set [3] deals with Mus musculus. Briefly: Antidepressant activity in CF1 mouse assessed as reduction in immobility at 15 mg/kg, po measured after 60 mins by forced-swimming test. It counts as functional, organism-based. On the set-up: dose 15 mg/kg.
Data set [4] has as its system Mus musculus. Briefly: Toxicity in CF1 mouse assessed as change in number of crossing at 15 mg/kg, po measured after 60 mins by open-field test. It counts as organism-based. On the set-up: dose 15 mg/kg, route oral. Conditions: in vivo, 1 h.
The subject of data set [5] is Mus musculus. The data set is described as follows: Toxicity in CF1 mouse assessed as change in number of rearing at 15 mg/kg, po measured after 60 mins by open-field test. In kind it is organism-based. Conditions: in vivo, 1 h. On the set-up: dose 15 mg/kg, route oral.

The structures appear in SMILES notation. Active and inactive are the calls of the source. The calls are words filed in the database; no cut-off is given here.

Turning to `CN(C)CCCN1c2ccccc2CCc2ccccc21`, in the data set with Mus musculus [1], the outcome was Active.
Consider `CC/C=C(\OC(C)=O)C1=C(OC(C)=O)[C@](C)(C/C=C(\C)CCC=C(C)C)C(OC(C)=O)=C(Cc2c(OC(C)=O)c3c(c(C(=O)CCC)c2OC(C)=O)OC(C)(C)C=C3)C1=O`, for which the Activity entry with Mus musculus [2], in the data set on Mus musculus [4] and in the data set with Mus musculus [5] was “Non-toxic” each time. Also, in the data set with Mus musculus [3], the result was Active.
On to `CCCC(=O)C1=C(O)[C@](C)(C/C=C(\C)CCC=C(C)C)C(O)=C(Cc2c(O)c3c(c(C(=O)CCC)c2O)OC(C)(C)C=C3)C1=O` [CRASSIPIN A], for which the Activity entry with Mus musculus [2], in the data set on Mus musculus [4] and with Mus musculus [5] was “Non-toxic” each time. Also, the outcome in the data set with Mus musculus [3] was Active.
